Key:
[1] = target: T1, BMX (Homo sapiens, UniProt P51813); experiment: Radiometric kinase assay (Reaction Biology HotSpot); format: biochemical; conditions: radiometric HotSpot, five-dose singlicate, [ATP] = 10 μM
T1 construct: purchased Reaction Biology Corporation
T1 sequence (P51813 1-675): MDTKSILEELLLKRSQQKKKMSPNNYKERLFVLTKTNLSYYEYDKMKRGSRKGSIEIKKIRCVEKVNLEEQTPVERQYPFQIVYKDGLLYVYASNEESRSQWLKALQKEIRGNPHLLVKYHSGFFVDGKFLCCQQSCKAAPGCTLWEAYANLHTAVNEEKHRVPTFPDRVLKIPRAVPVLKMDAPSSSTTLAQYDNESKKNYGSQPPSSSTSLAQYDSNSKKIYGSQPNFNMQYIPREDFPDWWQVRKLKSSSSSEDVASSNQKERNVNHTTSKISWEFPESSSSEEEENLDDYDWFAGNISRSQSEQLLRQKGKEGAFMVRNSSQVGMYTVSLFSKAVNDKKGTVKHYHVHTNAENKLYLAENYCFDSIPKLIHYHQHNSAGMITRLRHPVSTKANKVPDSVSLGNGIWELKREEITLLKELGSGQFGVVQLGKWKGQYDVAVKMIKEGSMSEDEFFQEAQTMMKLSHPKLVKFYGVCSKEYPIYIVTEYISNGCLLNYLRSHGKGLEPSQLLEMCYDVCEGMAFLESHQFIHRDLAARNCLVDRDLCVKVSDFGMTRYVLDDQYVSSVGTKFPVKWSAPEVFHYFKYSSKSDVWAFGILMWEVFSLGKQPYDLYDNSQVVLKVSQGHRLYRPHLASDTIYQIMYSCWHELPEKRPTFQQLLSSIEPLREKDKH
Experimental: (§1) If not mentioned differently, in vitro profiling of compounds was performed at Reaction Biology Corporation using the HotSpot™ assay platform.

[2] = target: T2, TXK (Homo sapiens, UniProt P42681); experiment: as above; format: biochemical; conditions: radiometric HotSpot, five-dose singlicate, [ATP] = 10 μM
T2 construct: purchased Reaction Biology Corporation
T2 sequence (P42681 1-527): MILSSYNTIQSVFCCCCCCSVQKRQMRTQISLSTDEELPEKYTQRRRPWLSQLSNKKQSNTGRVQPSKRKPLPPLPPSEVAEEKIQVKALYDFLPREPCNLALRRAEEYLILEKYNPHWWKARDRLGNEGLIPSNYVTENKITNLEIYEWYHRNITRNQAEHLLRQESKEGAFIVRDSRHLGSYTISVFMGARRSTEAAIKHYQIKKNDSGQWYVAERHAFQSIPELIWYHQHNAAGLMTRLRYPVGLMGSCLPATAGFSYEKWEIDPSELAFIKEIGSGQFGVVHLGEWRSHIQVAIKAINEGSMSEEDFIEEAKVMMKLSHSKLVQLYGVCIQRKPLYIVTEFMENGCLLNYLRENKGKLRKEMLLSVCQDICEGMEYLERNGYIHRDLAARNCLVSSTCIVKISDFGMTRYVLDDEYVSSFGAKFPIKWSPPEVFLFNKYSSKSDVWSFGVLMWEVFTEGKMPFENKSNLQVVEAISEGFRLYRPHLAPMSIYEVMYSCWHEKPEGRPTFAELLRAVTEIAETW
Experimental: as §1

[3] = target: T3, Full length BMX (C-terminal NanoLuc fusion) (Homo sapiens, UniProt P51813); experiment: Cellular NanoBRET target engagement assay in HEK293T cells; format: cell-based; conditions: 0.5 µM Tracer K4, 2 h incubation
T3 construct: Full length BMX and BTK was cloned into pFC32K; expressed in transfected cells; host or cells: HEK293T
T3 sequence (P51813 1-675): T1 sequence (P51813 1-675)
Experimental: (§2) Full length BMX and BTK was cloned into pFC32K (Promega, Madison, WI, USA) for expression of a C-terminal NanoLuc fusion. The plasmids were transfected into HEK293T cells cultured in DMEM (Gibco, Waltham, MA, USA) supplemented with 10% fetal bovine serum (Gibco, Waltham, MA, USA) and Penicillin/Streptamycin (Gibco, Waltham, MA, USA). NanoBRET assays were performed using the protocol published previously. Briefly, after transfection and 20 h incubation cells were harvested and subsequently resuspended in OptiMEM (Gibco, Waltham, MA, USA). Cells were aliquoted onto […] (Greiner, Kremsmünster, Austria), and inhibitors as well as 0.5 µM Tracer K4 (Promega) for BMX or 0.5 µM Tracer K5 (Promega, Madison, WI, USA) for BTK were added using an ECHO acoustic dispenser. The plates were incubated at 37 °C with 5% CO2 for 2 h prior to the addition of both NanoBRET NanoGlo substrate (Promega, Madison, WI, USA) and extracellular NanoLuc inhibitor. BRET luminescence (450 nm for donor emission and 610 nm for BRET signal) was measured using PHERAstar FSX plate reader (BMG Labtech, Ortenberg, Germany). Milli-BRET units (mBU) were calculated as a ratio between BRET signal and the overall measured luminescence. A dose–response fitting was applied and IC50 values were calculated using the Prism software. […] Experiments were performed as tripicates and repeated at least three times.

[4] = target: T4, Full length BTK (C-terminal NanoLuc fusion) (Homo sapiens, UniProt Q06187); experiment: as above; format: cell-based; conditions: 0.5 µM Tracer K5, 2 h incubation
T4 construct: Full length BMX and BTK was cloned into pFC32K; expressed in transfected cells; host or cells: HEK293T
Experimental: as §2

[5] = target: T5, kinase domain of BMX (Homo sapiens, UniProt P51813); experiment: Mass spectrometric investigation of covalent binding to BMX (ESI-TOF); conditions: 4 °C; for covalent labeling of BMX (in words): 1.5-fold molar excess, complete labeling refers to 30 min
T5 construct: The kinase domains of JAK3 and BMX at 2 μM
Experimental: The kinase domain of BMX was diluted to 0.05 mM with buffer containing 20 mM Tris pH 8.0, 200 mM NaCl, 0.5 mM TCEP (pH 7.0) and was subsequently mixed with 0.075 mM inhibitors (ratio of protein to inhibitor of 1:1.5). The mixture was incubated at 4°C. The samples were taken at different time points, the reaction stopped by diluting the sample with a 200-fold excess of 1% formic acid. The denatured protein and the adducts were assessed using electrospray time-of-flight (ESI-TOF) mass spectrometry.

[6] = target: T6, JAK3 (Homo sapiens, UniProt P52333); experiment: Radiometric kinase assay (Reaction Biology HotSpot); format: biochemical; conditions: radiometric HotSpot, five-dose singlicate, [ATP] = 10 μM
T6 construct: purchased Reaction Biology Corporation
T6 sequence (P52333 1-1124): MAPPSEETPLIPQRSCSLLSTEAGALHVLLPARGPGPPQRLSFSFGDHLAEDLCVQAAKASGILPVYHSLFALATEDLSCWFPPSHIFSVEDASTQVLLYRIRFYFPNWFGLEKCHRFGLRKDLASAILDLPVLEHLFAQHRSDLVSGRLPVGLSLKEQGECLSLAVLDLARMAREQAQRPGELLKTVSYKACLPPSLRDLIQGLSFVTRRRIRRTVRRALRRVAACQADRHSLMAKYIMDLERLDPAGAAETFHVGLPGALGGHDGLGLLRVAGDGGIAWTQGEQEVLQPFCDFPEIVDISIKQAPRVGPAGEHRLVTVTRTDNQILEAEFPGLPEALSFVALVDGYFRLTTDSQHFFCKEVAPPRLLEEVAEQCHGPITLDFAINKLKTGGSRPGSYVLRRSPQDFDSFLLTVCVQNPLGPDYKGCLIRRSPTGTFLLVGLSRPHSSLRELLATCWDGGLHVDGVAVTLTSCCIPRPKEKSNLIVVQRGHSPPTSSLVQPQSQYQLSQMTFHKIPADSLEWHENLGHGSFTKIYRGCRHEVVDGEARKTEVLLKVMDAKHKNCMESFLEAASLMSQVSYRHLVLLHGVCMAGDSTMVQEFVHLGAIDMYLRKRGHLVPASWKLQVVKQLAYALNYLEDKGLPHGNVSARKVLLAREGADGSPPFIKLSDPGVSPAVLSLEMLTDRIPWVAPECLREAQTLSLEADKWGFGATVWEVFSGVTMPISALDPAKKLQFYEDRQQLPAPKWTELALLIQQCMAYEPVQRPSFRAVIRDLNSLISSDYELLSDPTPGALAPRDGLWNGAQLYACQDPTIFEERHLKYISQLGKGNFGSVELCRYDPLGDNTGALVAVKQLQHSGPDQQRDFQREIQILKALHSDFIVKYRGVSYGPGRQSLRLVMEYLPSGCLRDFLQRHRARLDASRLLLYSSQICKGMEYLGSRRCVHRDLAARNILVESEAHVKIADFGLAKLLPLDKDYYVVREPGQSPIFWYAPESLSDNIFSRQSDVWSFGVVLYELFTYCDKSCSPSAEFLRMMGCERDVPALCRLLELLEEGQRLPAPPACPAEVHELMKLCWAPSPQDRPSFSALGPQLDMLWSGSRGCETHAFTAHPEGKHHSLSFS
Experimental: as §1

[7] = target: T5, kinase domain of BMX; experiment: Thermal shift (ΔTm) assay; format: binding; conditions: 2 μM kinase domain, 10 μM inhibitor; mean ± SD of at least three measurements
Experimental: (§3) The kinase domains of JAK3 and BMX at 2 μM were mixed with the inhibitors at 10 μM, and subsequently SyPRO orange dye (Invitrogen Carlsbad, CA, USA) was added. The thermal shift assay and data evaluation were performed as described previously using a Real-Time PCR Mx3005p machine (Stratagene, La Jolla, CA, USA).

[8] = target: T7, kinase domain of JAK3 (Homo sapiens, UniProt P52333); experiment: Thermal shift (ΔTm) assay; format: binding; conditions: 2 μM kinase domain, 10 μM inhibitor; mean ± SD of at least three measurements
T7 construct: The kinase domains of JAK3 and BMX at 2 μM; made in house
Experimental: as §3

[9] = 1.5-fold molar excess of inhibitor, 30 min
[10] = 1.5-fold molar excess of inhibitor, 60 min
[11] = 1.5-fold molar excess of inhibitor
[12] = 1.5-fold molar excess of inhibitor, 240 min

T4 sequence (Q06187 whole entry, the tested form may be a part): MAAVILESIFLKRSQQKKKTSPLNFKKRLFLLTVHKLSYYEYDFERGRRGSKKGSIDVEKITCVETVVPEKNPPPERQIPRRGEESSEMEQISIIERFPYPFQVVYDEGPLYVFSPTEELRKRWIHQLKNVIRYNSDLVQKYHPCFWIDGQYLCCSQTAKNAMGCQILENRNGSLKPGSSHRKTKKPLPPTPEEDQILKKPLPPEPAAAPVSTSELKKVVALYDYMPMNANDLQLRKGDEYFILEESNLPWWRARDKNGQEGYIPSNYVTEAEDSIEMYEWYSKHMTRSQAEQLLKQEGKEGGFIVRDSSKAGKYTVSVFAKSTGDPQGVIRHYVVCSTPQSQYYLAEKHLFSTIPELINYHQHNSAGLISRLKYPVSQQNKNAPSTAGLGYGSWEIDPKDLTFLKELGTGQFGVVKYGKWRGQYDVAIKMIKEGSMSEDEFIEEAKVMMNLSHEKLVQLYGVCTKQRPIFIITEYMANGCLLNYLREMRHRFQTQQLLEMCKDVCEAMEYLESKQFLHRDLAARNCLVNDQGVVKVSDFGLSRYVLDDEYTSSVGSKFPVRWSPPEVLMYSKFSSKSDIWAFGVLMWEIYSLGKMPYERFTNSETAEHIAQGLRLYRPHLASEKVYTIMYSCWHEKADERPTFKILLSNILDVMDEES

Structure (SMILES) | IC50 [1] | IC50 [2] | IC50 [3] | IC50 [4] | native (unmodified) BMX fraction, 30 min [5, 9] | native (unmodified) BMX fraction, 60 min [5, 10] | native (unmodified) BMX fraction, 120 min [5, 11] | native (unmodified) BMX fraction, 240 min [5, 12] | covalent labeling of BMX (in words) [5] | IC50 [6] | ΔTm at 10 µM [7] | ΔTm at 10 µM [8] | BMX covalent adduct fraction, 30 min [5, 9] | BMX covalent adduct fraction, 60 min [5, 10] | BMX covalent adduct fraction, 120 min [5, 11] | BMX covalent adduct fraction, 240 min [5, 12]
CCC(=O)Nc1cccc(-c2c[nH]c3ncc(C(=O)NC4CCCC4)cc23)c1 [Compound 11b, N-cyclopentyl-3-(3-propionamidophenyl)-1H-pyrrolo[2,3-b]pyridine-5-carboxamide] | > 10 µM | > 10 µM | > 10 µM | 3.71 ± 1.2 µM | 100% | 100% | 100% | 100% | no modification was detectable | – | – | – | – | – | – | –
C=CC(=O)Nc1cccc(-c2c[nH]c3ncc(NC(=O)CC4CCCC4)cc23)c1 [Compound 12g, N-(3-(5-(2-cyclopentylacetamido)-1H-pyrrolo[2,3-b]pyridin-3-yl)phenyl)acrylamide] | 0.006 µM | – | 0.003 ± 0.001 µM | 0.013 ± 0.002 µM | – | – | 1% | – | complete labeling | > 10 µM | 11.88 ± 0.07 °C | 11.9 ± 0.23 °C | 100% | 100% | 99% | 100%
C=CC(=O)Nc1cccc(-c2c[nH]c3ncc(NC(=O)Cc4cccs4)cc23)c1 [Compound 12i, N-(3-(5-(2-(thiophen-2-yl)acetamido)-1H-pyrrolo[2,3-b]pyridin-3-yl)phenyl)acrylamide] | 0.016 µM | – | 0.017 ± 0.007 µM | 0.037 ± 0.01 µM | – | – | – | – | complete labeling | – | 11.5 °C | 10.1 °C | 100% | 100% | 100% | 100%

Source: publication PMC7730235, “Discovery of a Novel Class of Covalent Dual Inhibitors Targeting the Protein Kinases BMX and BTK” (International Journal of Molecular Sciences, 2020)
